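Assay format: 96-well plates, 48-hour exposure. The concentration for 50% growth inhibition is given as GI50.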 The source made the active and inactive calls. No stated cut-off is given here; in the data, active = GI50 up to about 1.1 µM and inactive = higher.
Key:
Assay in all cases: NCI tumour cell line growth inhibition, 48 h
RPMI-8226 = test system: RPMI-8226
MOLT-4 = test system: MOLT-4
UO-31 = test system: UO-31
CCRF-CEM = test system: CCRF-CEM
SW-620 = test system: SW-620
SF-295 = test system: SF-295
K562 = test system: K562
LOX IMVI = test system: LOX IMVI
HOP-92 = test system: HOP-92
IGROV-1 = test system: IGROV-1
OVCAR-4 = test system: OVCAR-4
SK-MEL-28 = test system: SK-MEL-28
HCT-116 = test system: HCT-116
UACC-62 = test system: UACC-62
SF-268 = test system: SF-268
NCI-H460 = test system: NCI-H460

Measured: GI50

CCCCCCC(O)CC[C@H]1CCC[C@@H](C)N1 (some centres undefined)
inactive: RPMI-8226 > 100 µM | MOLT-4 > 100 µM | UO-31 > 84.3 µM | CCRF-CEM > 100 µM | SW-620 > 100 µM | SF-295 > 31.6 µM | K562 > 100 µM | LOX IMVI > 100 µM | HOP-92 > 100 µM | IGROV-1 > 100 µM | OVCAR-4 > 10 µM | SK-MEL-28 > 31.6 µM | HCT-116 > 100 µM | UACC-62 72.6 µM | SF-268 > 31.6 µM | NCI-H460 > 100 µM

CC(=O)Nc1ccc(C(=O)N2N=C(C)/C(=C\c3c(O)ccc4ccccc34)C2=O)cc1
inactive: RPMI-8226 56.8 µM | MOLT-4 31.7 µM | UO-31 39 µM | CCRF-CEM 26.8 µM | SW-620 75.2 µM | SF-295 40.5 µM | K562 74.8 µM | LOX IMVI 59.8 µM | OVCAR-4 > 100 µM | SK-MEL-28 57.8 µM | HCT-116 93.5 µM | SF-268 56 µM | NCI-H460 > 100 µM

O=S(=O)(N/N=C/c1ccc(/C=N/NS(=O)(=O)c2ccccc2)cc1)c1ccccc1
inactive: RPMI-8226 45 µM | MOLT-4 21.5 µM | UO-31 63.2 µM | CCRF-CEM 30.3 µM | SF-295 15.5 µM | K562 29.4 µM | LOX IMVI 16 µM | HOP-92 31.8 µM | IGROV-1 37.9 µM | OVCAR-4 63.7 µM | SK-MEL-28 81.7 µM | HCT-116 57.3 µM | UACC-62 24.9 µM | SF-268 > 100 µM | NCI-H460 49.9 µM

O=S1(=O)OCCOS(=O)(=O)C1Cc1ccccc1
inactive: RPMI-8226 18.7 µM | MOLT-4 25.3 µM | UO-31 57.8 µM | SW-620 65 µM | SF-295 53.8 µM | K562 61 µM | LOX IMVI 35.7 µM | HOP-92 70.6 µM | IGROV-1 28.8 µM | OVCAR-4 43.5 µM | SK-MEL-28 > 100 µM | HCT-116 48.4 µM | UACC-62 40.8 µM | SF-268 39.1 µM | NCI-H460 33.2 µM

Cc1cc(C)c(C2=NO[C@@H]3C(=O)N(c4ccc(Cc5ccc(N6C(=O)[C@H]7C(c8c(C)cc(C)cc8C)=NO[C@H]7C6=O)cc5)cc4)C(=O)[C@H]23)c(C)c1
inactive: RPMI-8226 > 100 µM | MOLT-4 > 100 µM | UO-31 > 100 µM | CCRF-CEM > 100 µM | SW-620 > 100 µM | SF-295 > 100 µM | K562 > 100 µM | LOX IMVI > 100 µM | HOP-92 > 100 µM | IGROV-1 > 100 µM | OVCAR-4 > 100 µM | SK-MEL-28 > 100 µM | UACC-62 > 100 µM | SF-268 > 100 µM

CCOP(=O)(OCC)C1C(=O)O[C@H]2CCCC[C@@H]12 (some centres undefined)
inactive: RPMI-8226 > 100 µM | MOLT-4 > 100 µM | CCRF-CEM > 100 µM | SW-620 > 100 µM | SF-295 > 100 µM | K562 > 100 µM | LOX IMVI > 100 µM | IGROV-1 > 100 µM | OVCAR-4 > 100 µM | SK-MEL-28 > 100 µM | HCT-116 > 100 µM | UACC-62 > 100 µM | SF-268 > 100 µM | NCI-H460 > 100 µM

Cn1cc(NC(=O)c2cc(NC(=O)CCCCCCCCCCC(=O)Nc3cc(C(=O)Nc4cc(C(=O)NCCC(=N)N)n(C)c4)n(C)c3)cn2C)cc1C(=O)NCCC(=N)N
inactive: MOLT-4 45.9 µM | UO-31 > 100 µM | CCRF-CEM 50 µM | SW-620 17.9 µM | SF-295 50.8 µM | K562 74 µM | LOX IMVI 40.4 µM | IGROV-1 24.5 µM | OVCAR-4 41.4 µM | SK-MEL-28 > 10 µM | HCT-116 27 µM | UACC-62 7.5 µM | SF-268 30.6 µM | NCI-H460 18.6 µM

CC1=CC(N2C(=O)C(C)=CC2O)NC1=O (centres undefined)
inactive: UO-31 > 100 µM | SW-620 > 100 µM | SF-295 > 100 µM | LOX IMVI > 100 µM | HOP-92 > 100 µM | OVCAR-4 > 100 µM | SK-MEL-28 > 100 µM | HCT-116 > 100 µM | SF-268 > 100 µM | NCI-H460 > 100 µM

CN1c2ccccc2N(C(=O)c2ccc(Cl)cc2)C(CC(=O)O)c2cccn21 (centres undefined)
inactive: RPMI-8226 > 100 µM | MOLT-4 > 100 µM | UO-31 > 100 µM | CCRF-CEM > 100 µM | SW-620 > 100 µM | SF-295 > 100 µM | K562 > 100 µM | LOX IMVI > 100 µM | HOP-92 > 100 µM | IGROV-1 > 100 µM | OVCAR-4 > 100 µM | SK-MEL-28 > 100 µM | UACC-62 > 100 µM | SF-268 > 100 µM | NCI-H460 > 100 µM

O=c1nc(/C=C/c2ccccc2Cl)cc2n1CCN2CCO
inactive: RPMI-8226 > 100 µM | MOLT-4 75.9 µM | UO-31 > 100 µM | CCRF-CEM 50.4 µM | SW-620 > 100 µM | SF-295 > 100 µM | K562 90.2 µM | LOX IMVI > 100 µM | HOP-92 > 100 µM | IGROV-1 > 100 µM | OVCAR-4 80.2 µM | SK-MEL-28 > 100 µM | HCT-116 > 100 µM | UACC-62 > 100 µM | SF-268 67.6 µM | NCI-H460 > 100 µM

COc1nc2c(nc(N)n2C2OCC(O)C(O)C2O)c(=O)n1C (centres undefined)
inactive: MOLT-4 > 100 µM | UO-31 > 100 µM | CCRF-CEM > 100 µM | SW-620 > 100 µM | SF-295 > 100 µM | K562 > 100 µM | LOX IMVI > 100 µM | HOP-92 > 100 µM | IGROV-1 > 100 µM | OVCAR-4 > 100 µM | SK-MEL-28 > 100 µM | HCT-116 > 100 µM | UACC-62 > 100 µM | SF-268 > 100 µM | NCI-H460 > 100 µM

Cc1cc(CC(=O)NCCO)n(CCO)c(=O)c1
inactive: MOLT-4 > 100 µM | UO-31 > 100 µM | CCRF-CEM > 100 µM | SW-620 > 100 µM | SF-295 > 100 µM | K562 > 100 µM | LOX IMVI > 100 µM | HOP-92 > 100 µM | IGROV-1 > 100 µM | OVCAR-4 > 100 µM | SK-MEL-28 > 100 µM | HCT-116 > 100 µM | UACC-62 > 100 µM | SF-268 > 100 µM | NCI-H460 > 100 µM

Cn1c(=O)nc2n(-c3ccc(F)c(F)c3)c3ccccc3nc-2c1=O
inactive: RPMI-8226 16.8 µM | UO-31 37.9 µM | CCRF-CEM 14.8 µM | SW-620 7.85 µM | SF-295 14.3 µM | K562 15.5 µM | IGROV-1 15.2 µM | OVCAR-4 8.83 µM | HCT-116 13.2 µM | UACC-62 2.4 µM | SF-268 18.5 µM | NCI-H460 7.11 µM
